# Results: ChEMBL document CHEMBL2384963, “Diterpenoids from the twigs and leaves of Fokienia hodginsii” (J Nat Prod, 2013)
# Key:
# Type in all cases: functional, cell-based
# SW480 = assay: Cytotoxicity against human SW480 cells after 48 hrs by MTT assay; conditions: SW480, 48 h
# A549 = assay: Cytotoxicity against human A549 cells after 48 hrs by MTT assay; conditions: A549, 48 h
# MCF7 = assay: Cytotoxicity against human MCF7 cells after 48 hrs by MTT assay; conditions: MCF7, 48 h
# SMMC-7721 = assay: Cytotoxicity against human SMMC7721 cells after 48 hrs by MTT assay; conditions: SMMC-7721, 48 h
# HL-60 = assay: Cytotoxicity against human HL60 cells after 48 hrs by MTT assay; conditions: HL-60, 48 h
SMILES,IC50 (SW480) [µM],IC50 (A549) [µM],IC50 (MCF7) [µM],IC50 (SMMC-7721) [µM],IC50 (HL-60) [µM]
CC(C)c1cc2c(cc1O)[C@@]1(CO)CCCC(C)(C)[C@@H]1CC2 [PISIFEROL],> 40,> 40,> 40,> 40,> 40
C=C[C@]1(C)C=C2CC[C@H]3[C@](C)(CO)CCC[C@]3(C)[C@H]2[C@H](O)C1,> 40,> 40,> 40,> 40,> 40
C=CC(=C)CC[C@@H]1[C@@]2(C)CCC[C@](C)(COC(=O)/C=C/c3ccc(O)c(OC)c3)[C@@H]2CC[C@@]1(C)O,16.9,16.8,13.5,14.1,14.3
CC(C)c1cc2c(cc1O)[C@@]1(C=O)CCCC(C)(C)[C@@H]1CC2 [PISIFERAL],14.4,21,15.6,19.7,14.3
C=C[C@]1(C)C=C2CC[C@H]3C(C)(C)[C@@H](O)CC[C@]3(C)[C@H]2[C@H](O)C1,> 40,> 40,> 40,> 40,> 40
C=C[C@]1(C)C=C2CC[C@H]3C(C)(C)[C@@H](O)CC[C@]3(C)[C@H]2[C@H](OC(C)=O)C1,> 40,> 40,> 40,> 40,> 40
C=CC(=C)[C@@H](O)C[C@H]1C(=C)CC[C@@H]2[C@]1(C)CCC[C@]2(C)C(=O)O,> 40,> 40,> 40,> 40,> 40
C=C/C(C)=C/C[C@H]1C(=C)CC[C@@H]2[C@]1(C)CCC[C@]2(C)C(=O)O,> 40,> 40,> 40,> 40,> 40
C=C[C@]1(C)C=C2CC[C@@H]3[C@](C)(CCC[C@@]3(C)C(=O)O)[C@H]2CC1 [SANDARACOPIMARIC ACID],> 40,> 40,> 40,> 40,> 40
CC(C)c1cc2c(cc1O)[C@@]1(CO)CCCC(C)(C)[C@H]1CC2,15.1,20.7,15,15.2,15.5
C=C1CC[C@@H]2[C@](C)(CCC[C@]2(C)C(=O)O)[C@H]1C/C=C(\C)C=O,> 40,> 40,> 40,> 40,> 40
C=CC(=C)[C@H](O)C[C@H]1C(=C)CC[C@@H]2[C@]1(C)CCC[C@]2(C)C(=O)O,> 40,> 40,> 40,> 40,> 40
C=C[C@]1(C)C=C2CC[C@H]3[C@](C)(COC(C)=O)CCC[C@]3(C)[C@H]2[C@H](O)C1,> 40,> 40,> 40,> 40,> 40
C=CC(=C)CC[C@@H]1[C@@]2(C)CCC[C@](C)(COC(=O)/C=C/c3ccc(O)cc3)[C@@H]2CC[C@@]1(C)O,19.3,20.4,16.6,15.5,11.8
C=CC(=C)CC[C@@H]1[C@@]2(C)CCC[C@](C)(COC(=O)/C=C\c3ccc(O)c(OC)c3)[C@@H]2CC[C@@]1(C)O,17.6,17.3,15.4,7.5,9.1
C=C1CC[C@@H]2[C@](C)(CCC[C@]2(C)C(=O)O)[C@H]1CCC1=CCOC1=O [PINUSOLIDIC ACID],> 40,> 40,> 40,> 40,> 40
C=C[C@]1(C)C=C2CC[C@H]3[C@](C)(CO)[C@@H](O)CC[C@]3(C)[C@H]2CC1 [SANDARACOPIMARADIENEDIOL],> 40,> 40,> 40,> 40,> 40
CC(C)C1=C[C@]2(O)CC[C@H]3C(C)(C)CCC[C@]3(O)CC2=CC1=O,> 40,> 40,> 40,> 40,> 40
C=CC(=C)CC[C@@H]1[C@@]2(C)CCC[C@](C)(COC(=O)/C=C\c3ccc(O)cc3)[C@@H]2CC[C@@]1(C)O,13.6,17.1,15.1,16.2,14.1
C=C[C@@]1(C)O[C@H]1C[C@H]1C(=C)CC[C@@H]2[C@]1(C)CCC[C@]2(C)C(=O)O,> 40,> 40,> 40,> 40,> 40
C=C[C@]1(C)O[C@H]1C[C@H]1C(=C)CC[C@@H]2[C@]1(C)CCC[C@]2(C)C(=O)O,> 40,> 40,> 40,> 40,> 40
C=C[C@]1(C)C=C2CC[C@H]3C(C)(C)CCC[C@]3(C)[C@H]2[C@H](O)C1,> 40,> 40,> 40,> 40,> 40
C=C1CC[C@@H]2[C@](C)(CCC[C@@]2(C)C(=O)O)[C@H]1CC/C(C)=C/COC(C)=O,> 40,> 40,> 40,> 40,> 40
C=C[C@@]1(C)C=C[C@H]2C(=C1)[C@H](O)C[C@H]1[C@](C)(CO)CCC[C@]21C,> 40,> 40,> 40,> 40,> 40
C=C/C(C)=C/C[C@H]1C(=C)CC[C@@H]2[C@]1(C)CCC[C@]2(C)C=O,> 40,> 40,> 40,> 40,> 40
CC(C)c1cc2c(cc1O)[C@@]1(C)CCCC(C)(C)[C@@H]1CC2 [FERRUGINOL],> 40,> 40,> 40,> 40,> 40
C=C1CC[C@@H]2[C@](C)(CCC[C@]2(C)C(=O)O)[C@H]1CC/C(C)=C/CO [ISOCUPRESSIC ACID],> 40,> 40,> 40,> 40,> 40
C=C[C@@](C)(O)CC[C@H]1C(=C)CC[C@@H]2[C@]1(C)CCC[C@]2(C)C(=O)O,> 40,> 40,> 40,> 40,> 40
